In patent US11969433B2, “Compositions and methods for muscle regeneration using prostaglandin E2” (The Board of Trustees of the Leland Stanford Junior …, priority 2016, dated 2024):

Key:
Assay type in all cases: cell-based, mouse
[1] = system: MuSCs; experiment: Young MuSC numbers after acute PGE2 treatment, hydrogel culture (hemocytometer count); conditions: young MuSCs, acute 1-day exposure, PGE2 10 ng/ml, one week later
Description: (§1) Following isolation, we resuspended MuSCs in myogenic cell culture medium containing DMEM/F10 (50:50), 15% FBS, 2.5 ng ml^−1 fibroblast growth factor-2 (FGF-2 also known as bFGF) and 1% penicillin-streptomycin. We seeded MuSC suspensions at a density of 500 cells per cm^2 surface area. We maintained cell cultures at 37° C. in 5% CO2 and changed medium daily. […]
(§2) To assay proliferation, we used three different assays (hemocytometer, VisionBlue, and EdU). […] For hemocytometer cell number count, we collected cells at indicated timepoints by incubation with 0.5% trypsin in PBS for 5 min at 37° C. and quantified them using a hemocytometer at least 3 times. Additionally, we used the VisionBlue Quick Cell Viability Fluorometric Assay Kit (BioVision, catalog #K303) as a readout for cell growth in culture. Briefly, we incubated MuSCs with 10% VisionBlue in culture medium for 3 h, and measured fluorescence intensity on a fluorescence plate reader (Infinite M1000 PRO, Tecan) at Ex=530-570 nm, Em=590-620 nm. […] We quantified EdU positive cells using the MetaMorph Image Analysis software (Molecular Devices). Data analyses were blinded, where researchers performing cell scoring were unaware of the treatment condition given to sample groups analyzed.

[2] = system: MuSCs; experiment: Quantitative RT-PCR of MuSC transcripts
Text: We isolated RNA from MuSCs using the RNeasy Micro Kit (Qiagen). For muscle samples, we snap froze the tissue in liquid nitrogen, homogenized the tissues using a mortar and pestle, followed by syringe and needle trituration, and then isolated RNA using Trizol (Invitrogen). We reverse-transcribed cDNA from total mRNA from each sample using the SensiFAST™ cDNA Synthesis Kit (Bioline). We subjected cDNA to RT-PCR using SYBR Green PCR Master Mix (Applied Biosystems) or TaqMan Assays (Applied Biosystems) in an ABI 7900HT Real-Time PCR System (Applied Biosystems). We cycled samples at 95° C. for 10 min and then 40 cycles at 95° C. for 15 s and 60° C. for 1 min. To quantify relative transcript levels, we used 2-ΔΔCt to compare treated and untreated samples and expressed the results relative to Gapdh. For SYBR Green qRT-PCR, we used the following primer sequences: Gapdh. forward 5′-[…]-3′ (SEQ ID NO: 1), reverse 5′-CCCTTTTGGCTCCACCCT-3′ (SEQ ID NO: 2); Hpgd, forward 5′-[…]-3′ (SEQ ID NO: 3), reverse 5′-[…]-3′ (SEQ ID NO: 4); Ptges, forward 5′-GCTGTCATCACAGGCCAGA-3′ (SEQ ID NO: 5), reverse 5′-[…]-3′ (SEQ ID NO: 6); Ptges2, forward 5′-[…]-3′ (SEQ ID NO: 7), reverse 5′-[…]-3′ (SEQ ID NO: 8); Ptger1, forward 5′ GTGGTGTCGTGCATCTGCT-3′ (SEQ ID NO: 9), reverse, 5′ […]-3′ (SEQ ID NO: 10), and Ptger2, forward 5′-[…]-3′ (SEQ ID NO: 11), reverse 5′-[…]-3′ (SEQ ID NO: 12). TaqMan Assays (Applied Biosystems) were used to quantify Pax7. Myogenin. Slco2a1 (PGT), Ptger3 and Ptger4 in samples according to the manufacturer instructions with the TaqMan Universal PCR Master Mix reagent kit (Applied Biosystems). Transcript levels were expressed relative to Gapdh levels. For SYBR Green qPCR, Gapdh qPCR was used to normalize input cDNA samples. For Taqman qPCR, multiplex qPCR enabled target signals (FAM) to be normalized individually by their internal Gapdh signals (VIC).

[3] = system: MuSCs; experiment: MuSC proliferation in charcoal stripped serum medium; conditions: PGE2 10 ng/ml every two days, 7 days
Description: as §1, §2

[4] = system: aged MuSCs; experiment: Aged MuSC numbers after acute 24 hr treatment, hydrogel culture; conditions: 1-day pulse; PGE2 10 ng/ml or SW033291 1 μM; assayed day 7
Description: as §1, §2

CCCCC[C@H](O)/C=C/[C@H]1[C@H](O)CC(=O)[C@@H]1C/C=C\CCCC(=O)O [PGE2, prostaglandin E2]
increase in the number of MuSCs relative to controls [1]: 6 fold
transcript levels of Ptger1 and Ptger4 ([2]; after 24 hr PGE2 treatment of MuSCs): upregulated
Pax7 expression in aged MuSCs ([2]; aged MuSCs, 1-day pulse): maintenance
proliferation of aged MuSCs in charcoal stripped serum medium ([3]; aged MuSCs): rescued
division of growth arrested MuSCs in charcoal stripped serum medium ([3]; young MuSCs): divided
proliferation of aged MuSCs [4]: increase
